Experimental data as given in patent US8778871B2 (Takeda Pharmaceutical Company Limited, priority 2004, dated 2014).
Non-standard residues stand in square brackets, D forms with d. No end group written: not given here. *: point of attachment. Arg(NO2) = N=C(NCCC[C@H](N)C(=O)O)N[N+](=O)[O-]; 2Nal = N[C@@H](Cc1ccc2ccccc2c1)C(=O)O; Cyclohexanecarbonyl = O=C(C1CCCCC1)*; Arg(Me) = CNC(=N)NCCC[C@H](N)C(=O)O; Lys(Me2) = CN(C)CCCC[C@H](N)C(=O)O; hArg = N=C(N)NCCCC[C@H](N)C(=O)O; hPhe = N[C@@H](CCc1ccccc1)C(=O)O; 2Thi = N[C@@H](Cc1cccs1)C(=O)O; Cha = N[C@@H](CC1CCCCC1)C(=O)O; NMeN = CN[C@@H](CC(N)=O)C(=O)O; aThr = C[C@H](O)[C@H](N)C(=O)O; Tos = Cc1ccc(S(=O)(=O)*)cc1; NMeS = CN[C@@H](CO)C(=O)O; Abu = CC[C@H](N)C(=O)O; Dap = NC[C@H](N)C(=O)O; Bz = O=C(c1ccccc1)*; GABA = NCCCC(=O)O; azaGly = NNC(=O)O; For = O=C*

Biological target: T1, hOT7T175 (Homo sapiens, UniProt Q969F8, L364H)
T1 construct: expressed in transfected cells
Assay type: cell-based
Details: hOT7T175/CHO, FLIPR, evaluation for 40 seconds after initiation of the reaction

T1 sequence (Q969F8 whole entry L364H): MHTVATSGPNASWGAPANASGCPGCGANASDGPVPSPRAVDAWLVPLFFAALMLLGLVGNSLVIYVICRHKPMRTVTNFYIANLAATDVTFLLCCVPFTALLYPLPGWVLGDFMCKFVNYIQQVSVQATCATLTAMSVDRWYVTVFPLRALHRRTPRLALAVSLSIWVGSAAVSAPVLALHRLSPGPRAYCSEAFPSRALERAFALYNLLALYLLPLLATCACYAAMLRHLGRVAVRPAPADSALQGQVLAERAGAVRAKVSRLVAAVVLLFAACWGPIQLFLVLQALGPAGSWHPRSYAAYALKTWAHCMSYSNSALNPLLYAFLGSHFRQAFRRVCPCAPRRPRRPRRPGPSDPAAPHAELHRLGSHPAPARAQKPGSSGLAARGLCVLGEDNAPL

Row | Substance | Specific Act. (EC50/MS10 EC50)
1 | Ac-[dY]WNT[dF][azaGly]L[Arg(Me)]W-NH2 [Compound No. 586] | 0.3
2 | Ac-[dY][dT]NTF[azaGly]L[Arg(Me)]W-NH2 [Compound No. 628] | 4.4
3 | Ac-[dY][dW]D(NHMe)TF[azaGly]L[Arg(Me)]W-NH2 [Compound No. 702] | 0.6
4 | Ac-[dY][dW]DTF[azaGly]L[Arg(Me)]W-NH2 [Compound No. 647] | 10.6
5 | Ac-[dY][dW]NS(Me)F[azaGly]L[Arg(Me)]W-NH2 [Compound No. 580] | 0.6
6 | Ac-[dY][dW]NTA[azaGly]L[Arg(Me)]W-NH2 [Compound No. 631] | 2
7 | Ac-[dY][dW]NTE[azaGly]L[Arg(Me)]W-NH2 [Compound No. 634] | 10.5
8 | Ac-[dY][dW]NTF[azaGly]A[Arg(Me)]W-NH2 [Compound No. 641] | 3.5
9 | Ac-[dY][dW]NTF[azaGly]F[Arg(Me)]W-NH2 [Compound No. 643] | 2.5
10 | Ac-[dY][dW]NTF[azaGly]LKW-NH2 [Compound No. 639] | 2
11 | Ac-[dY][dW]NTF[azaGly]LR(Et)W-NH2 [Compound No. 609] | 0.9
12 | Ac-[dY][dW]NTF[azaGly]LR(Tos)W-NH2 [Compound No. 604] | 6.3
13 | Ac-[dY][dW]NTF[azaGly]L[Arg(Me)][hPhe]-NH2 [Compound No. 594] | 2.1
14 | Ac-[dY][dW]NTF[azaGly]L[Arg(NO2)]W-NH2 [Compound No. 605] | 3.9
15 | Ac-[dY][dW]NTF[azaGly]L[Lys(Me2)]W-NH2 [Compound No. 610] | 1.9
16 | Ac-[dY][dW]NTF[azaGly]L[hArg]W-NH2 [Compound No. 645] | 1.1
17 | Ac-[dY][dW]NTF[azaGly]S[Arg(Me)]W-NH2 [Compound No. 644] | 2.5
18 | Ac-[dY][dW]NTK[azaGly]L[Arg(Me)]W-NH2 [Compound No. 633] | 3.4
19 | Ac-[dY][dW]NTL[azaGly]L[Arg(Me)]W-NH2 [Compound No. 632] | 1.1
20 | Ac-[dY][dW]NT[2Nal][azaGly]L[Arg(Me)]W-NH2 [Compound No. 694] | 1.7
21 | Ac-[dY][dW]NT[2Thi][azaGly]L[Arg(Me)]W-NH2 [Compound No. 695] | 0.7

Row | Substance | Specific Act. (EC50/MS10 EC50)
22 | Ac-[dY][dW]NT[Cha][azaGly]L[Arg(Me)]W-NH2 [Compound No. 696] | 0.5
23 | Ac-[dY][dW]NT[dF]GL[Arg(Me)]W-NH2 [Compound No. 601] | 3.1
24 | Ac-[dY][dW]NT[dF][azaGly]L[Arg(Me)]W-NH2 [Compound No. 597] | 0.6
25 | Ac-[dY][dW]N[NMeS]F[azaGly]L[Arg(Me)]W-NH2 [Compound No. 656] | 2.9
26 | Ac-[dY][dW]N[aThr]F[azaGly]L[Arg(Me)]W-NH2 [Compound No. 659] | 0.6
27 | Ac-[dY][dW]N[dT]F[azaGly]L[Arg(Me)]W-NH2 [Compound No. 654] | 2.9
28 | Ac-[dY][dW]QSF[azaGly]L[Arg(Me)]W-NH2 [Compound No. 576] | 0.8
29 | Ac-[dY][dW]SSF[azaGly]L[Arg(Me)]W-NH2 [Compound No. 577] | 0.7
30 | Ac-[dY][dW]TSF[azaGly]L[Arg(Me)]W-NH2 [Compound No. 578] | 0.8
31 | Ac-[dY][dW][Abu]SF[azaGly]L[Arg(Me)]W-NH2 [Compound No. 573] | 0.7
32 | Ac-[dY][dW][Dap](Ac)SF[azaGly]L[Arg(Me)]W-NH2 [Compound No. 584] | 0.4
33 | Ac-[dY][dW][Dap](For)SF[azaGly]L[Arg(Me)]W-NH2 [Compound No. 585] | 0.4
34 | Ac-[dY][dW][Dap]SF[azaGly]L[Arg(Me)]W-NH2 [Compound No. 701] | 1.4
35 | Ac-[dY][dW][NMeN]TF[azaGly]L[Arg(Me)]W-NH2 [Compound No. 655] | 4.7
36 | Ac-[dY][dW][dN]TF[azaGly]L[Arg(Me)]W-NH2 [Compound No. 653] | 1.3
37 | Amidino-D-Trp-Asn-Thr-Phe-AzaGly-Leu-Arg(Me)-Trp-NH2 (Amidino-[dW]NTF[azaGly]L[Arg(Me)]W-NH2) [Compound No. 679] | 1.8
38 | Amidino-D-Tyr-D-Trp-Asn-Thr-Phe-AzaGly-Leu-Arg(Me)-Trp-NH2 [Compound No. 614] | 0.8
39 | Arg-Arg-D-Tyr-D-Pya(4)-Asn-Ser-Phe-AzaGly-Leu-Arg(Me)-Trp-NH2 [Compound No. 537] | 4.7
40 | Arg-D-Tyr-D-Pya(4)-Asn-Ser-Phe-AzaGly-Leu-Arg(Me)-Trp-NH2 [Compound No. 536] | 1.8
41 | Benzoyl-D-Trp-Asn-Thr-Phe-AzaGly-Leu-Arg(Me)-Trp-NH2 (Bz-[dW]NTF[azaGly]L[Arg(Me)]W-NH2; SMILES CNC(=N)NCCC[C@H](NC(=O)[C@H](CC(C)C)NC(=O)NNC(=O)[C@H](Cc1ccccc1)NC(=O)[C@@H](NC(=O)[C@H](CC(N)=O)NC(=O)[C@@H](Cc1c[nH]c2ccccc12)NC(=O)c1ccccc1)[C@@H](C)O)C(=O)N[C@@H](Cc1c[nH]c2ccccc12)C(N)=O) [Compound No. 669] | 0.5
42 | Bz-NTF[azaGly]L[Arg(Me)]W-NH2 [Compound No. 522] | 1.9

Row | Substance | Specific Act. (EC50/MS10 EC50)
43 | Cyclohexanecarbonyl-D-Trp-Asn-Thr-Phe-AzaGly-Leu-Arg(Me)-Trp-NH2 (Cyclohexanecarbonyl-[dW]NTF[azaGly]L[Arg(Me)]W-NH2; SMILES CNC(=N)NCCC[C@H](NC(=O)[C@H](CC(C)C)NC(=O)NNC(=O)[C@H](Cc1ccccc1)NC(=O)[C@@H](NC(=O)[C@H](CC(N)=O)NC(=O)[C@@H](Cc1c[nH]c2ccccc12)NC(=O)C1CCCCC1)[C@@H](C)O)C(=O)N[C@@H](Cc1c[nH]c2ccccc12)C(N)=O) [Compound No. 668] | 1.2
44 | Cyclopropanecarbonyl-Asn-Ser-Phe-AzaGly-Leu-Arg(Me)-Trp-NH2 [Compound No. 534] | 5.6
45 | D-Arg-Acp-D-Tyr-D-Trp-Abu-Ser-Phe-AzaGly-Leu-Arg(Me)-Trp-NH2 [Compound No. 561] | 1.6
46 | D-Arg-Acp-D-Tyr-D-Trp-Asn-Thr-Phe-AzaGly-Leu-Arg(Me)-Trp-NH2 [Compound No. 541] | 2.0
47 | D-Arg-D-Arg-Acp-D-Tyr-D-Trp-Asn-Thr-Phe-AzaGly-Leu-Arg(Me)-Trp-NH2 [Compound No. 542] | 1.4
48 | D-Trp-Asn-Thr-Phe-AzaGly-Leu-Arg(Me)-Trp-NH2 ([dW]NTF[azaGly]L[Arg(Me)]W-NH2; N-terminus assumed; SMILES CNC(=N)NCCC[C@H](NC(=O)[C@H](CC(C)C)NC(=O)NNC(=O)[C@H](Cc1ccccc1)NC(=O)[C@@H](NC(=O)[C@H](CC(N)=O)NC(=O)[C@H](N)Cc1c[nH]c2ccccc12)[C@@H](C)O)C(=O)N[C@@H](Cc1c[nH]c2ccccc12)C(N)=O) [Compound No. 665] | 1.1
49 | D-Trp-D-Pya(4)-Asn-Ser-Phe-AzaGly-Leu-Arg(Me)-Trp-NH2 [Compound No. 572] | 0.7
50 | D-Tyr-D-Pya(4)-Asn-Hyp-Phe-AzaGly-Leu-Arg(Me)-Trp-NH2 [Compound No. 527] | 3.3
51 | D-Tyr-D-Pya(4)-Asn-Phg-Phe-AzaGly-Leu-Arg(Me)-Trp-NH2 [Compound No. 530] | 3.4
52 | D-Tyr-D-Pya(4)-Asn-Pro-Phe-AzaGly-Leu-Arg(Me)-Trp-NH2 [Compound No. 528] | 1.4
53 | D-Tyr-D-Pya(4)-Asn-Ser-Phe-AzaGly-Leu-Arg-Phe-NH2 [Compound No. 521] | 2.4
54 | D-Tyr-D-Pya(4)-Asn-Tle-Phe-AzaGly-Leu-Arg(Me)-Trp-NH2 [Compound No. 529] | 1.8
55 | Glycoloyl-D-Trp-Asn-Thr-Phe-AzaGly-Leu-Arg(Me)-Trp-NH2 (Glycoloyl-[dW]NTF[azaGly]L[Arg(Me)]W-NH2) [Compound No. 680] | 2.5
56 | Glycoloyl-D-Tyr-D-Trp-Asn-Thr-Phe-AzaGly-Leu-Arg(Me)-Trp-NH2 (Glycoloyl-[dY][dW]NTF[azaGly]L[Arg(Me)]W-NH2) [Compound No. 681] | 1.2
57 | Me-D-Tyr-D-Trp-Asn-Thr-Phe-AzaGly-Leu-Arg(Me)-Trp-NH2 [Compound No. 570] | 0.5
58 | Phenylacetyl-Asn-Ser-Phe-AzaGly-Leu-Arg(Me)-Trp-NH2 [Compound No. 519] | 2.4
59 | [dR][dR][GABA][dY][dW]NTF[azaGly]L[Arg(Me)]W-NH2 [Compound No. 556] | 2.8
60 | [dR][dR][dR][GABA][dY][dW]NTF[azaGly]L[Arg(Me)]W-NH2 [Compound No. 557] | 3.2
61 | [dY][dW]NVF[azaGly]L[Arg(Me)]W-NH2 [Compound No. 539] | 1.2
